Test results reported in patent publication US12660820B2, “Heterocyclic compound and harmful arthropod-controlling composition including same” (SUMITOMO CHEMICAL COMPANY, LIMITED, priority 2020, dated 2026).

Test system: cotton aphids (Aphis gossypii)
Test: Test Method 9: foliar spray on cucumber seedling infested with cotton aphids (Formulation Example 5)
Assay type: in vivo
Conditions: Test Example 9-1; 200 ppm; 5 days after spraying
Method: Cucumber (Cucumis sativus) seedling (on the developmental stage of the second true leaf) is planted in a container and approximately 30 cotton aphids (Aphis gossypii) (all developmental stages of life) are released onto the leaves of the cucumber. After 1 day, the diluted solutions are sprayed to the seedling at a ratio of 10 mL/seedling. Further, after 5 days, the number of the surviving insects is examined and the controlling value is calculated by the following equation. Controlling value (%)={1−(Cb×Tai)/(Cai×Tb)}×100 wherein the symbols in the formula represent the following descriptions. • Cb: Number of the test insects in untreated group; • Cai: Number of the surviving insects at the time of the investigation in untreated group; • Tb: Number of the test insects in treated group; • Tai: Number of the surviving insects at the time of the investigation in treated group; Here the “untreated group” represents a group where the similar treatment procedure to that of the treated group except not using the test compound is done.

With `CCS(=O)(=O)c1c(-c2cnc3cc(C(F)(F)F)ccn3c2=O)nc2cc(C(F)(F)F)ccn12` [compound 6] the Controlling value was ≥ 90%.
